Here are results for 17 molecules from patent US12427159B2, “Hydroxypyrrolidine-substituted arylsulfonamide compounds with selective activity in voltage-gated sodium channels” (Merck Sharp & Dohme LLC, priority 2019, dated 2025).

Assay [1] addresses T1, human Nav1.7 channels (Homo sapiens, UniProt Q15858).
T1 construct: expressed in transfected cells; host or cells: HEK 293
Put plainly: IonWorks Quattro automated patch-clamp, inactivated state block of Nav1.7. The class given is cell-based. Particulars: human Nav1.7 stably expressed in HEK 293 cells, double-pulse protocol, read-out: potency for the Nav 1.7 sodium ion channel (as measured by IonWorks). Here is the method: (§1) IonWorks® Experimental Procedure
(§2) Compounds were tested on human Nav1.7 and Nav1.5 channels stably expressed in HEK 293 cells. Sodium current measurements on IonWorks Quattro: An automated patch-clamp assay on the IonWorks Quattro platform (Molecular Devices) was used to measure state-dependent inhibition of human Nav1.7 and 1.5 channels. Cells were sealed on a planar substrate using the Population Patch […] (PPC) technology. Electrical access was obtained using both nystatin and amphotericin. A double-pulse protocol was used for the determination of IC50 values for inactivated state block. Nav1.7 and Nav1.5 expressing cells were voltage clamped at −100 mV and −110 mV, respectively. A depolarizing prepulse to −10 mV (Nav1.7) or −30 mV (Nav1.5) for 1000 ms followed by a 10 ms repolarization to −100 mV (Nav1.7) or −110 mV (Nav1.5) was given to generate fractional channel inactivation of ˜ 50%, followed by a 10 ms test pulse to −10 mV (Nav1.7) or −30 mV (Nav1.5) to measure peak current in control conditions and after compound addition. The following recording solutions were used (mM). External: 150 NaCl, 2 CaCl2), 5 KCl, 1 Mg Cl2, 10 HEPES, 12 Dextrose; internal: 120 CsF, 30 CsCl, 10 EGTA, 5 HEPES, 5 NaF, 2 MgCl2.
(§3) For all electrophysiology experiments, offline analysis was used to determine percent inhibition as a function of drug concentration. IC50 values were determined by fitting to the Hill equation.
(§4) The various compounds in Examples 1 through 4 and Tables 1 through 3 exemplified above were assayed for activity and selectivity using the foregoing IonWorks® technique. The results are reported in the following paragraph in a format expressing the identification of the compound with reference Example and compound (e.g. Ex 1-9 is Example 1, compound 9) followed by the observed potency in nM and the ratio of Nav1.7 potency:Nav 1.5 potency as described here. […]

Assay [2] addresses T2, human Nav1.5 channels (Homo sapiens, UniProt Q14524).
T2 construct: expressed in transfected cells; host or cells: HEK 293
Put plainly: IonWorks Quattro automated patch-clamp, Nav1.5 (selectivity versus Nav1.7). The class given is cell-based. Conditions: selectivity Nav1.7 over Nav1.5, both by IonWorks in HEK 293 cells. Here is the method:
as §1, §2, §3, §4
Background: Patch clamp records ionic current or voltage across a cell membrane.

“And” between values parts separate entries of the source, which are not always exact repeats. Equal entries are not always repeated. Bounds are passed on as bounds.

T1 sequence (Q15858 whole entry): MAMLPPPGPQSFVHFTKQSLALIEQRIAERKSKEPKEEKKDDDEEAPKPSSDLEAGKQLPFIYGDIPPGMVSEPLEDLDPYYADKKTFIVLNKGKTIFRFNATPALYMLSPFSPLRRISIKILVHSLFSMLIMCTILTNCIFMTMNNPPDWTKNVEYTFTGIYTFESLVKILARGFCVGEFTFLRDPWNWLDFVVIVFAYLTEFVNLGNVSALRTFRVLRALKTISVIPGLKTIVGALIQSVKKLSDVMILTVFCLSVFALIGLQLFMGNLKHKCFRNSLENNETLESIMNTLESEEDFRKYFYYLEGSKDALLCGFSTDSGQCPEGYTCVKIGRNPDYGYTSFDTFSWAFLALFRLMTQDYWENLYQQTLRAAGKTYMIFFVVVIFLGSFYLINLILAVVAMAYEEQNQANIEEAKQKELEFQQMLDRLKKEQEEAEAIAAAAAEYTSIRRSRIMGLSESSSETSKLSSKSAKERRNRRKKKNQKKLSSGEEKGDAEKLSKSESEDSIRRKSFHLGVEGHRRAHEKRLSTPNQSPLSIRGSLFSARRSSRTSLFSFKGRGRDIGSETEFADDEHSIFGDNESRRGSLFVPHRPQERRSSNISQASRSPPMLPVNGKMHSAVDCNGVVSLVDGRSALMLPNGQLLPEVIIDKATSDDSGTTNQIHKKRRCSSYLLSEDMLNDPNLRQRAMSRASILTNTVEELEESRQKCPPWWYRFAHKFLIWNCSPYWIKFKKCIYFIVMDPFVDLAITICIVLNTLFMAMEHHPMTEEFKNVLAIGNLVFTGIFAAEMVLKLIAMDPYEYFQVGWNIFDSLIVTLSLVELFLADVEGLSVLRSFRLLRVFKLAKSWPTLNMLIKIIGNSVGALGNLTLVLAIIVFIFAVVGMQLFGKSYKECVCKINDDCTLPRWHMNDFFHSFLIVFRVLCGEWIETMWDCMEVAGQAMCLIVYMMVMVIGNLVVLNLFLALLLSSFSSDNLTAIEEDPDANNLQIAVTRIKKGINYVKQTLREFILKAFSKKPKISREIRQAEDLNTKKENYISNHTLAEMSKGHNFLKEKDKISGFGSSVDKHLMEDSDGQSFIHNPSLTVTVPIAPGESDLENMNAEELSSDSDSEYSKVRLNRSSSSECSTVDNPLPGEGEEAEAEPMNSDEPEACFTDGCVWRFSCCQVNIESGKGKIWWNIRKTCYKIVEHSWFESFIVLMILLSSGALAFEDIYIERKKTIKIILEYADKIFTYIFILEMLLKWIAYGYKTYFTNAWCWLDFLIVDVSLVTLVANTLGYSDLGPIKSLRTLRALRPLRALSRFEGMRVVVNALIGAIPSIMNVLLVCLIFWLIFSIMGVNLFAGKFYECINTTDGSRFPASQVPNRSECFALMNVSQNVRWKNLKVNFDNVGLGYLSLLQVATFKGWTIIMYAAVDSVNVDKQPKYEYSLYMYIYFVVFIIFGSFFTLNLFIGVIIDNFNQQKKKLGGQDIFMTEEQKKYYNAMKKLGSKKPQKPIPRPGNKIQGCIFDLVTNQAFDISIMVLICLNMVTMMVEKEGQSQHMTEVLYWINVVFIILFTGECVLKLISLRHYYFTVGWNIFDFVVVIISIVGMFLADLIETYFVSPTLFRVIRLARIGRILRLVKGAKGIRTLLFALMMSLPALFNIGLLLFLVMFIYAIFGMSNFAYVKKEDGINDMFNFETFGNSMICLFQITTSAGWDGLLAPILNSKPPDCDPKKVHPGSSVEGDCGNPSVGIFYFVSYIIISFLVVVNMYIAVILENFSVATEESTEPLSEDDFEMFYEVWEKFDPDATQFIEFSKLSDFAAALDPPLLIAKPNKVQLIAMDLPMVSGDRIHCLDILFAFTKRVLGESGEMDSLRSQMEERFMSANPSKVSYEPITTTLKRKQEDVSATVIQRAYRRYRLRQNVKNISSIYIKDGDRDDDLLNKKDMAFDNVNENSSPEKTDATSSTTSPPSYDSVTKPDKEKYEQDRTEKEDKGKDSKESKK
T2 sequence (Q14524 whole entry): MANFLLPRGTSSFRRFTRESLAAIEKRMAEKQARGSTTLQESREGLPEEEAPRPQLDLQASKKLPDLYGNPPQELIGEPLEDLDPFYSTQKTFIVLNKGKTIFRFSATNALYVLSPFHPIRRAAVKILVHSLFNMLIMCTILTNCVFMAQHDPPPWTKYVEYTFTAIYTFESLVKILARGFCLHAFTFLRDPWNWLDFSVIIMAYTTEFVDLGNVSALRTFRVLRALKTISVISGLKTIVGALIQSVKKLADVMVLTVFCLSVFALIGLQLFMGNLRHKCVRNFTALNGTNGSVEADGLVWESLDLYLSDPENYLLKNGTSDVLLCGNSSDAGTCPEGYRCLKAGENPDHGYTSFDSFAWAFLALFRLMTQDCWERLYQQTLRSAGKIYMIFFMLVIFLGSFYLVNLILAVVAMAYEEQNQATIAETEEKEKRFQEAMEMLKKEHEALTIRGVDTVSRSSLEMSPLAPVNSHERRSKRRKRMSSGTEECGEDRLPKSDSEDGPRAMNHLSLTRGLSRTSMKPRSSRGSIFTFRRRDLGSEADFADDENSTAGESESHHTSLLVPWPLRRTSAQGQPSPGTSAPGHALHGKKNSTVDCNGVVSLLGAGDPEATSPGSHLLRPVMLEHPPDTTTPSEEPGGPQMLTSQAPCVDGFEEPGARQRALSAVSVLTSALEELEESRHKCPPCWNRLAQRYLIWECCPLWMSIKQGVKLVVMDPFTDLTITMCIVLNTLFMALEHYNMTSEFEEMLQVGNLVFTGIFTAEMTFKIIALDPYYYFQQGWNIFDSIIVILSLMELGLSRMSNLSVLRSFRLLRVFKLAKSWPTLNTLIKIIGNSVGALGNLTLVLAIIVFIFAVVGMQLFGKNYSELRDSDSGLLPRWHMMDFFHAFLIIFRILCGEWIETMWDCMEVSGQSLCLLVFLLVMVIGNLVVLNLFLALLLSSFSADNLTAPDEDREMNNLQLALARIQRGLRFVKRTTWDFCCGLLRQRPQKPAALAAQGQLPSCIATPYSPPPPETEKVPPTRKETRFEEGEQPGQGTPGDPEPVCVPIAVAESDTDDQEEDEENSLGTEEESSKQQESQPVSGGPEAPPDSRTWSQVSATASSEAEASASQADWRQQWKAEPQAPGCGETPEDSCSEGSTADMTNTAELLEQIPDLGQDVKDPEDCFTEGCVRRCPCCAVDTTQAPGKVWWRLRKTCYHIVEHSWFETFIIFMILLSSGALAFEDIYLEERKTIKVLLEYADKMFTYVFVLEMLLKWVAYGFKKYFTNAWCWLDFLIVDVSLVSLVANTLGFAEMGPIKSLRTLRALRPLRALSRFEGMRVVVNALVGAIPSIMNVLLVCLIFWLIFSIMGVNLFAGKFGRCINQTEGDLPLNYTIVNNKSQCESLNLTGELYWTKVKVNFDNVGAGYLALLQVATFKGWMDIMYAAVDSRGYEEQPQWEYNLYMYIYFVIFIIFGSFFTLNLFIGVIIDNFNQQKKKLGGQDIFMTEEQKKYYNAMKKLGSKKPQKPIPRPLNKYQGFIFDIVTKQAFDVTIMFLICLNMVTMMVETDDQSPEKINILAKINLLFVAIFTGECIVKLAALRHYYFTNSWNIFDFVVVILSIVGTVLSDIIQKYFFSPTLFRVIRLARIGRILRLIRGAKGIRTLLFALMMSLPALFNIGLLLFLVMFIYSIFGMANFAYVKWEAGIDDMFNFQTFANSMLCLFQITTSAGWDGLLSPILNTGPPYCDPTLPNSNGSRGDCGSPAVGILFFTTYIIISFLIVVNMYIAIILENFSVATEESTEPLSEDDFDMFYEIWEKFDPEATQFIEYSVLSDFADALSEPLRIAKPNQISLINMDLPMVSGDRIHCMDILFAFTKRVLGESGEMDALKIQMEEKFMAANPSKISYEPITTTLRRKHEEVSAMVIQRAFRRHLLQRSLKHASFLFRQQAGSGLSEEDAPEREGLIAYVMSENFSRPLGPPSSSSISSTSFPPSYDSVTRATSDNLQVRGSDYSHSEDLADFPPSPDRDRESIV

Turning to `O=S(=O)(Nc1nccs1)c1cc(Cl)c(NC[C@]2(Cc3cccc(Br)c3)C[C@H](O)CN2)cc1F` [Ex1-30, 4-((((2S,4S)-2-(3-bromobenzyl)-4-hydroxypyrrolidin-2-yl)methyl)amino)-5-chloro-2-fluoro-N-(thiazol-2-yl) benzenesulfonamide], in assay [1], the IC50 is 7 nM. Also, the “ratio of Nav1.7 potency:Nav 1.5 potency” value in assay [2] is given as 1220.

Consider `O=S(=O)(Nc1nccs1)c1cc(Cl)c(NC[C@]2(Cc3cccc(F)c3)C[C@H](O)CN2)cc1F` [Ex1-33, 5-chloro-2-fluoro-4-((((2S,4S)-2-(3-fluorobenzyl)-4-hydroxypyrrolidin-2-yl)methyl)amino)-N-(thiazol-2-yl) benzenesulfonamide], for which the IC50 in assay [1] amounted to 7 nM. Moreover, the “ratio of Nav1.7 potency:Nav 1.5 potency” value in assay [2] amounted to 1714.

Consider `O=S(=O)(Nc1nccs1)c1cc(Cl)c(NC[C@]2(Cc3ccc(-c4ccn[nH]4)cc3)C[C@H](O)CN2)cc1F` [Ex4-2, 4-((((2S,4S)-2-(4-(1H-Pyrazol-5-Yl)Benzyl)-4-Hydroxypyrrolidin-2-Yl) Methyl)Amino)-5-Chloro-2-Fluoro-N-(Thiazol-2-Yl)Benzenesulfonamide], for which the IC50 in assay [1] stood at 18 nM. In addition, in assay [2], the “ratio of Nav1.7 potency:Nav 1.5 potency” value came to 367.

On to `O=S(=O)(Nc1nccs1)c1cc(Cl)c(NC[C@]2(Cc3ccc(-c4ccccn4)cc3)C[C@H](O)CN2)cc1F` [Ex3-2, 5-Chloro-2-Fluoro-4-((((2S,4S)-4-Hydroxy-2-(4-(Pyridin-2-Yl)Benzyl)Pyrrolidin-2-Yl)Methyl)Amino)-N-(Thiazol-2-Yl)Benzenesulfonamide], for which the IC50 in assay [1] is 7 nM. Moreover, the “ratio of Nav1.7 potency:Nav 1.5 potency” value in assay [2] is on record as 543.

On to `COc1cccc(C[C@@]2(CNc3cc(F)c(S(=O)(=O)Nc4nccs4)cc3Cl)C[C@H](O)CN2)c1` [Ex1-31, 5-chloro-2-fluoro-4-((((2S,4S)-4-hydroxy-2-(3-methoxybenzyl)pyrrolidin-2-yl)methyl)amino)-N-(thiazol-2-yl) benzenesulfonamide], for which the IC50 in assay [1] came out at 7 nM. Moreover, the “ratio of Nav1.7 potency:Nav 1.5 potency” value in assay [2] stood at 4714.

In the case of `Cc1cccc(C[C@@]2(CNc3cc(F)c(S(=O)(=O)Nc4nccs4)cc3Cl)C[C@H](O)CN2)c1` [Ex1-32], in assay [1], the IC50 was determined as 2 nM. For the same molecule, in assay [2], the “ratio of Nav1.7 potency:Nav 1.5 potency” value is reported as 16500.

As to `NCc1ccc(C[C@@]2(CNc3cc(F)c(S(=O)(=O)Nc4nccs4)cc3Cl)C[C@H](O)CN2)cc1` [Ex2-3, 4-((((2S,4S)-2-(4-(Aminomethyl) Benzyl)-4-Hydroxypyrrolidin-2-Yl) Methyl)Amino)-5-Chloro-2-Fluoro-N-(Thiazol-2-Yl)Benzenesulfonamide], the IC50 in assay [1] came to 38 nM. Further, the “ratio of Nav1.7 potency:Nav 1.5 potency” value in assay [2] is reported as 868.

For the molecule `O=S(=O)(Nc1nccs1)c1cc(Cl)c(NC[C@]2(CCCc3ccccc3)C[C@H](O)CN2)cc1F` [Ex1-29, 5-chloro-2-fluoro-4-((((2S,4S)-4-hydroxy-2-(3-phenylpropyl)-pyrrolidin-2-yl)methyl)amino)-N-(thiazol-2-yl)-benzene-sulfonamide], the IC50 in assay [1] turned out to be 2 nM. For the same molecule, the “ratio of Nav1.7 potency:Nav 1.5 potency” value in assay [2] was determined as 10500.

As to `N#Cc1cccc(C[C@@]2(CNc3cc(F)c(S(=O)(=O)Nc4nccs4)cc3Cl)C[C@H](O)CN2)c1` [Ex2-4, 5-chloro-4-((((2S,4S)-2-(3-cyanobenzyl)-4-hydroxypyrrolidin-2-yl)methyl)amino)-2-fluoro-N-(thiazol-2-yl)benzenesulfonamide], the IC50 in assay [1] amounted to 11 nM. Further, in assay [2], the “ratio of Nav1.7 potency:Nav 1.5 potency” value came to 2909.

Turning to `O=S(=O)(Nc1nccs1)c1cc(Cl)c(NC[C@]2(CCc3ccccc3)C[C@H](O)CN2)cc1F` [Ex1-28, 5-Chloro-2-Fluoro-4-((((2S,4S)-4-Hydroxy-2-Phenethylpyrrolidin-2-Yl)Methyl)-Amino)-N-(Thiazol-2-Yl)Benzenesulfonamide], in assay [1], the IC50 was 3 nM. Further, in assay [2], the “ratio of Nav1.7 potency:Nav 1.5 potency” value is reported as 11000.

As for `N#Cc1ccc(C[C@@]2(CNc3cc(F)c(S(=O)(=O)Nc4nccs4)cc3Cl)C[C@H](O)CN2)cc1` [Ex2-2, 5-Chloro-4-((((2S,4S)-2-(4-Cyanobenzyl)-4-Hydroxypyrrolidin-2-Yl)Methyl)Amino)-2-Fluoro-N-(Thiazol-2-Yl)Benzenesulfonamide], the IC50 in assay [1] came to 4 nM. Further, the “ratio of Nav1.7 potency:Nav 1.5 potency” value in assay [2] is recorded as 3000.

Take `O=S(=O)(Nc1nccs1)c1cc(Cl)c(NC[C@]2(Cc3ccccc3)C[C@H](O)CN2)cc1F` [Ex1-9, 4-((((2S,4S)-2-Benzyl-4-Hydroxypyrrolidin-2-Yl)Methyl)Amino)-5-Chloro-2-Fluoro-N-(Thiazol-2-Yl)Benzenesulfonamide]: in assay [1], the IC50 was 8 nM. In addition, the “ratio of Nav1.7 potency:Nav 1.5 potency” value in assay [2] was 3976 and > 3976.

For the molecule `NCc1cccc(C[C@@]2(CNc3cc(F)c(S(=O)(=O)Nc4nccs4)cc3Cl)C[C@H](O)CN2)c1` [Ex2-5, 4-((((2S,4S)-2-(3-(aminomethyl)benzyl)-4-hydroxypyrrolidin-2-yl)methyl)amino)-5-chloro-2-fluoro-N-(thiazol-2-yl)benzenesulfonamide], the IC50 in assay [1] worked out at 4 nM. Also, in assay [2], the “ratio of Nav1.7 potency:Nav 1.5 potency” value was found to be 6250.

Regarding `O=S(=O)(Nc1nccs1)c1cc(Cl)c(NC[C@]2(CC3CCC3)C[C@H](O)CN2)cc1F` [Ex1-15, 5-Chloro-4-((((2S,4S)-2-(Cyclobutylmethyl)-4-Hydroxypyrrolidin-2 Yl)Methyl)Amino)-2-Fluoro-N-(Thiazol-2-Yl)Benzenesulfonamide], the IC50 in assay [1] amounted to 4 nM. The “ratio of Nav1.7 potency:Nav 1.5 potency” value in assay [2] was greater than 7500.

`O=S(=O)(Nc1nccs1)c1cc(Cl)c(NC[C@]2(Cc3ccc(-c4ncco4)cc3)C[C@H](O)CN2)cc1F` [Ex3-3, 5-chloro-2-fluoro-4-((((2S,4S)-4-hydroxy-2-(4-(oxazol-2-yl)benzyl)pyrrolidin-2-yl)methyl)amino)-N-(thiazol-2-yl)benzenesulfonamide]: the IC50 in assay [1] was found to be 9 nM. Further, the “ratio of Nav1.7 potency:Nav 1.5 potency” value in assay [2] is recorded as 933.

On to `CC(C)(C)CC[C@@]1(CNc2cc(F)c(S(=O)(=O)Nc3nccs3)cc2Cl)C[C@H](O)CN1` [Ex1-34, 5-chloro-4-((((2S,4S)-2-(3,3-dimethylbutyl)-4-hydroxypyrrolidin-2-yl)methyl)amino)-2-fluoro-N-(thiazol-2-yl) benzenesulfonamide], for which the IC50 in assay [1] was found to be 4 nM. Moreover, the “ratio of Nav1.7 potency:Nav 1.5 potency” value in assay [2] is 6750.

In the case of `O=S(=O)(Nc1nccs1)c1cc(Cl)c(NC[C@]2(Cc3ccc(Br)cc3)C[C@H](O)CN2)cc1F` [Ex1-22, 4-((((2S,4S)-2-(4-Bromobenzyl)-4-Hydroxypyrrolidin-2-Yl)Methyl)Amino)-5-Chloro-2-Fluoro-N-(Thiazol-2-Yl)Benzenesulfonamide], the IC50 in assay [1] turned out to be 4 nM. Further, the “ratio of Nav1.7 potency:Nav 1.5 potency” value in assay [2] is 84.
